Source: PMC4457840, “Differential Inhibition of Signal Peptide Peptidase Family Members by Established γ-Secretase Inhibitors” (PLoS ONE, 2015)

Biological target: T1, SPPL2a (Homo sapiens, UniProt Q8TCT8)
T1 construct: expressed in transfected cells; host or cells: HEK 293T
T1 sequence (Q8TCT8 26-520): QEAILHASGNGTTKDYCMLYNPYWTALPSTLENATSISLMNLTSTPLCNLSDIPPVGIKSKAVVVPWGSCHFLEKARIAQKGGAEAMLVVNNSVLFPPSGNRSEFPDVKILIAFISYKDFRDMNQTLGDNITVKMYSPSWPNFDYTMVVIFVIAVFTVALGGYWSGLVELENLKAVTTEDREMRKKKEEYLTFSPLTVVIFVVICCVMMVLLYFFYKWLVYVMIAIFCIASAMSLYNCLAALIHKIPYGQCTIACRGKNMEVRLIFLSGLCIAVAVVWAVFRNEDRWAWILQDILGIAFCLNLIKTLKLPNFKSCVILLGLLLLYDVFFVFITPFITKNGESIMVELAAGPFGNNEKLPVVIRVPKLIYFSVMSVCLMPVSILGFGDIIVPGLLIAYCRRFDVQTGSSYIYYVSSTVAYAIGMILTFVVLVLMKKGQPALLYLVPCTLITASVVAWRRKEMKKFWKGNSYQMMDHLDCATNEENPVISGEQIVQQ
Assay: FBA/SPPL2a co-transfected HEK 293T cell cleavage assay (Aβ ELISA, Western blot)
Type: cell-based
Conditions: overnight

Structure (SMILES): CC(C)C[C@H](NC(=O)OCc1ccccc1)C(=O)N[C@@H](CC(C)C)C(=O)NCC(=O)CNC(=O)[C@H](CC(C)C)NC(=O)[C@H](CC(C)C)NC(=O)OCc1ccccc1 [(Z-LL)2 ketone]
- inhibition at 10 µM: > 75%
